The NIST ThermoML archive (doi:10.1021/je400803f)
± gives the expanded uncertainty stated by the source.

Details: 101.33 kPa, Liquid, Vibrating tube method

Compound | mass density (293.15 K) [kg/m3] | mass density (298.15 K) [kg/m3] | mass density (303.15 K) [kg/m3] | mass density (308.15 K) [kg/m3] | mass density (313.15 K) [kg/m3] | mass density (318.15 K) [kg/m3] | mass density (323.15 K) [kg/m3]
CCCC[N+]1(C)CCCC1.FC(F)(F)C(F)(F)[P-](F)(F)(F)(C(F)(F)C(F)(F)F)C(F)(F)C(F)(F)F | 1588.56 ± 0.76 | 1583.15 ± 0.76 | 1577.67 ± 0.75 | 1572.16 ± 0.75 | 1566.62 ± 0.74 | 1561.06 ± 0.74 | 1555.48 ± 0.73
CC(=O)N(C)C [N,N-dimethylethanamide] | 940.92 ± 0.23 | 936.3 ± 0.23 | 931.62 ± 0.23 | 926.89 ± 0.23 | 922.09 ± 0.23 | 917.23 ± 0.23 | 912.23 ± 0.23

Results, then the compound that gave them:

mass density (293.15 K) [kg/m3] | mass density (298.15 K) [kg/m3] | mass density (303.15 K) [kg/m3] | mass density (308.15 K) [kg/m3] | mass density (313.15 K) [kg/m3] | mass density (318.15 K) [kg/m3] | mass density (323.15 K) [kg/m3] | Compound
951.59 ± 0.07 | 947.48 ± 0.07 | 943.29 ± 0.07 | 939.04 ± 0.07 | 934.78 ± 0.07 | 930.45 ± 0.07 | 926.06 ± 0.08 | CCNC=O [N-ethylformamide]
948.72 ± 0.23 | 943.86 ± 0.23 | 939 ± 0.23 | 934.08 ± 0.23 | 929.13 ± 0.23 | 924.06 ± 0.23 | 918.96 ± 0.23 | CN(C)C=O [dimethylformamide]
1003.35 ± 0.23 | 998.91 ± 0.23 | 994.49 ± 0.23 | 990.01 ± 0.23 | 985.47 ± 0.23 | 980.88 ± 0.23 | 976.24 ± 0.23 | CNC=O [N-methylformamide]
879.05 ± 0.23 | 875.12 ± 0.23 | 871.17 ± 0.23 | 867.15 ± 0.23 | 863.11 ± 0.23 | 859.01 ± 0.23 | 854.82 ± 0.23 | CCCCN(C=O)CCCC [N,N-dibutylformamide]
